Test results reported in ChEMBL document CHEMBL1201862, “PubChem BioAssay data set” (2004).
Activity calls are given as the source filed them.

Experiments:
[1] = test system: BJ; assay: BJ-TERT fibroblast viability loss – cell-based, RAS-independent, luminescence, dose response (AID 1933); type: functional; details: Homo sapiens
[2] = DRD fibroblast viability loss – cell-based, non-viral oncogenic, luminescence, dose response (AID 1934); type: functional; details: Homo sapiens
[3] = test system: BJ; assay: BJ-TERT-LT-ST fibroblast viability loss – cell-based, RAS-independent, luminescence, dose response (AID 1935); type: functional; details: Homo sapiens;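 note: BJ fibroblasts immortalized with TERT plus LT and ST oncogenes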
[4] = test system: BJ; assay: cells; type: functional, cell-based; details: Homo sapiens
[5] = target: T1, Polyadenylate-binding protein 1 (Homo sapiens, UniProt P11940); assay: MLLE domain peptide-binding blockers, IC50 – biochemical, fluorescence polarization, FITC-PAM2 peptide, dose response (AID 602259); type: functional; details: read-out: IC50_Mean
[6] = target: Genome polyprotein (dengue virus type 2, UniProt P29990); assay: flavivirus cap methylation enzyme inhibition – biochemical, confirmation dose response, primary screen (AID 588689); type: functional
[7] = target: T1, Polyadenylate-binding protein 1; assay: MLLE binding blockers, Cy5 peptide tracer – biochemical, fluorescence polarization, Cy5-PAM2 peptide, secondary, miRNA deadenylation inhibitor project, dose response (AID 602260); type: functional; details: read-out: IC50_Mean
[8] = off-target signal loss in HeLa-CEM21 co-culture – HeLa F-luc CTL cells, cherry-picked, counter-screen for HIV-1 Env fusion inhibitor project, dose response (AID 652040); type: functional, cell-based;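 note: potency for signal decrease marking cytotoxic or nonspecific inhibition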
[9] = HIV-1 AD8 envelope cell-cell fusion blockers – cherry-pick, dose response (AID 652062); type: functional, cell-based;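 note: luciferase signal from cell-cell fusion driven by HIV-1 clade B AD8 Env; potency is for inhibitors of fusion seen as a drop in luminescence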
[10] = blockers of HIV-1 envelope-mediated cell-cell fusion – cherry-pick, dose response (AID 652057); type: functional, cell-based
[11] = blockers of HIV-1 ZM109 envelope-driven cell-cell fusion – HeLa effector, CEM target cells, luciferase, cherry-pick, dose response (AID 652058); type: functional, cell-based;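 note: luciferase signal from HIV-1 Env mediated cell-cell fusion of effector and target cells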
[12] = target: T2, Ubiquitin-conjugating enzyme E2 N (Homo sapiens, UniProt P61088); type: functional;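 note: Dose-response confirmation in a TR-FRET assay detecting UBC13-driven polyubiquitin chain formation, inhibition measured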
T2 sequence (P61088 whole entry): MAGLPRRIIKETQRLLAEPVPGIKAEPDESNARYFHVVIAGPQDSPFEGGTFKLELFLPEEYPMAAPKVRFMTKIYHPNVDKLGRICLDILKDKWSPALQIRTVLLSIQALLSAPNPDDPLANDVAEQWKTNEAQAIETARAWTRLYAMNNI

[13] = target: T3, Histone-lysine N-methyltransferase NSD2 (Homo sapiens, UniProt O96028); type: biochemical
T3 sequence (O96028 whole entry): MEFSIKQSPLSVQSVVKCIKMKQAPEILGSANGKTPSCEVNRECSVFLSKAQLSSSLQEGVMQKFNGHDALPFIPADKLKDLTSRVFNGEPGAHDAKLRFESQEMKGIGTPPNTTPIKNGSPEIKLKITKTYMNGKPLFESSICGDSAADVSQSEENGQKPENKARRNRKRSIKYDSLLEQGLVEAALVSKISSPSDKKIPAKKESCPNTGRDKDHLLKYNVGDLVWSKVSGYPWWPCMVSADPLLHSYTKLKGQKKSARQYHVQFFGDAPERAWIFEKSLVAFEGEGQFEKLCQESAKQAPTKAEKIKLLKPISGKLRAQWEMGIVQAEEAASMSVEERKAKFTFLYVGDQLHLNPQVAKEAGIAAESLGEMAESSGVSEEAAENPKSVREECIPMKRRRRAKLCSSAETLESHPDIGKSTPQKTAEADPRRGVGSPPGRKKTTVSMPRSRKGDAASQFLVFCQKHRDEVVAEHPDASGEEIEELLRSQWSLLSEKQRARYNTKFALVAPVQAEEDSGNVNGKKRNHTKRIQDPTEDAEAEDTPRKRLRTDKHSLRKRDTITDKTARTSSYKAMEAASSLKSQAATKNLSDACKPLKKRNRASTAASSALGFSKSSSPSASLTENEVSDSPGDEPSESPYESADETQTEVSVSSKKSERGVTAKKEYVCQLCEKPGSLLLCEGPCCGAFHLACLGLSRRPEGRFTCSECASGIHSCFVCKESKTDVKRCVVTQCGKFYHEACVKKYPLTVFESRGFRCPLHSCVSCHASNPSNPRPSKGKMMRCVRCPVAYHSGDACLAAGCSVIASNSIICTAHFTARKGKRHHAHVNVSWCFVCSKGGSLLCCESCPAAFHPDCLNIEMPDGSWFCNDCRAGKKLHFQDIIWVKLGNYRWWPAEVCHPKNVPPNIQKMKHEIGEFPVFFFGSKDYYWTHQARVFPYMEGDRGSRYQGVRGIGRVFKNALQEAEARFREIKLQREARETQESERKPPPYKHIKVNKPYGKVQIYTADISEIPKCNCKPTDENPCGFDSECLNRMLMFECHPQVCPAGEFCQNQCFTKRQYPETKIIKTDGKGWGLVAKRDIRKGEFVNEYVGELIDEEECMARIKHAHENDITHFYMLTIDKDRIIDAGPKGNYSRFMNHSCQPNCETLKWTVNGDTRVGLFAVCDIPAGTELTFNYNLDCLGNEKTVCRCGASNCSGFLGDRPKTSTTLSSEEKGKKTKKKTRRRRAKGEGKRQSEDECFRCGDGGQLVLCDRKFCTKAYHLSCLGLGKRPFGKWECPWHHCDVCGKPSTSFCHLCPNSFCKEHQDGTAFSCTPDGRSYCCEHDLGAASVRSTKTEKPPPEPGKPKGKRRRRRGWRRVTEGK

[14] = test system: Vero; assay: cells; type: functional; details: Chlorocebus sabaeus
[15] = target: Nonstructural protein 1 (Influenza A virus, UniProt Q194T2); type: functional, Influenza A virus (A/California/07/2009(H1N1))
[16] = test system: H4; assay: Luminescence Cell-Based Dose Response HTS to Identify Activators of 5'UTR Stem-Loop Driven Prion Protein mRNA Translation in H4 Neuroglioblastoma Cells. [Related pubchem assays: 1829 (Project Summary), 1814 (Primary HTS)]; type: functional; details: Homo sapiens
[17] = Luminescence Cell-Based Dose Response HTS to Identify Activators of Luciferase Translation or Activity in H4 […] Cells. [Related pubchem assays: 1829 (Project Summary), 1814 (Primary HTS)]; type: functional
[18] = Luminescence Cell-Based Dose Confirmation HTS to Identify Activators of 5'UTR Stem-Loop Driven Alpha-Synuclein mRNA Translation in H4 Neuroglioblastoma Cells. [Related pubchem assays: 1829 (Project Summary), 1814 (Primary HTS)]; type: functional
[19] = Luminescence Cell-Based Dose Retest to Confirm Inhibitors of Cancer Stem Cells. [Related pubchem assays (depositor defined):AID2717, AID2721]; type: functional; details: Homo sapiens
[20] = target: Paired box protein Pax-8 (Homo sapiens, UniProt Q06710); assay: PAX8 transcriptional activity inhibition in RMG-I – RMG-I cells, luciferase, cherry-pick, dose response (AID 687027); type: functional, cell-based;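 note: luciferase reporter driven by Pax8 target thyroperoxidase promoter measured by SteadyGlo luminescence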
Chain of Paired box protein Pax-8 (Q06710 whole entry): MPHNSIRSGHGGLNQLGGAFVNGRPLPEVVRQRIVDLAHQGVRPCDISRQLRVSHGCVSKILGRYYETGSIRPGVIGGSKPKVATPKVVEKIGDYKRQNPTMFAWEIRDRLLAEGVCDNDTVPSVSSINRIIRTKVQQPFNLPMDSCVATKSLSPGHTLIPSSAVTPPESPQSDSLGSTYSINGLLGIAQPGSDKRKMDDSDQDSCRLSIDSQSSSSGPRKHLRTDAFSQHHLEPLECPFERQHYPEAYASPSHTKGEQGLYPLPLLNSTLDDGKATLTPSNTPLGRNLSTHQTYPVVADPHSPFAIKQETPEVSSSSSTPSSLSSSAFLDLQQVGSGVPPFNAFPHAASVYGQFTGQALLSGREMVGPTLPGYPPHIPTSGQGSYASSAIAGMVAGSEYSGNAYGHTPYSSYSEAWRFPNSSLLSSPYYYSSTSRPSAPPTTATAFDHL

Chain of Genome polyprotein (P29990 2492-3391 limits assumed): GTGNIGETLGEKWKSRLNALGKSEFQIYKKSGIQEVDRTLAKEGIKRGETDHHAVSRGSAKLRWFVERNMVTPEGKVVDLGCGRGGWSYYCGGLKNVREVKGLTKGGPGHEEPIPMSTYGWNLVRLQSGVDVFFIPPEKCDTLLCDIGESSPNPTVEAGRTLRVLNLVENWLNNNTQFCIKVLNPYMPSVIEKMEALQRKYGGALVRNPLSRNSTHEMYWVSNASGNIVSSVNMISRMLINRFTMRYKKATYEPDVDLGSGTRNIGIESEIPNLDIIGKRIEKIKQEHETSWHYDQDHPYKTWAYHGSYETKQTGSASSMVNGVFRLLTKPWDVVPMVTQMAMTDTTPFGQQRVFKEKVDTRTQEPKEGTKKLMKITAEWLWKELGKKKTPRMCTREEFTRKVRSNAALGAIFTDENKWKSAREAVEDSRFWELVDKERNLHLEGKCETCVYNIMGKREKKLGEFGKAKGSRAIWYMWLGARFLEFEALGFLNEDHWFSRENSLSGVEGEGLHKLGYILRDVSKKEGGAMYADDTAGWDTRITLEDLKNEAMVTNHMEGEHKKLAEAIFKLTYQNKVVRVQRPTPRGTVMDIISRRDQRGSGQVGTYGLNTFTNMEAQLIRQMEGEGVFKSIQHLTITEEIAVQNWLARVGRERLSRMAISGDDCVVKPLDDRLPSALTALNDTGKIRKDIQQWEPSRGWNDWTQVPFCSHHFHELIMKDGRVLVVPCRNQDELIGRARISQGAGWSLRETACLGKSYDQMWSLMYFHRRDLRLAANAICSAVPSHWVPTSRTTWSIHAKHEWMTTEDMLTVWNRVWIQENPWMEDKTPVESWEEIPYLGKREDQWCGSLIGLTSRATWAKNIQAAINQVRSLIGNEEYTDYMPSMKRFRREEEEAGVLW
Chain of Nonstructural protein 1 (Q194T2 whole entry): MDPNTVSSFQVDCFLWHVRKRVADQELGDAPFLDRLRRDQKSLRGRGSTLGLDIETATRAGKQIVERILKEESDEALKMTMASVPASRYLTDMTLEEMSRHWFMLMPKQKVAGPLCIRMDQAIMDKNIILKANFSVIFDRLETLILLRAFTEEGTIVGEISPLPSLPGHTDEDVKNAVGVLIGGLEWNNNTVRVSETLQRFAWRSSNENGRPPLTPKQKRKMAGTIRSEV
T1 sequence (P11940 whole entry, the tested form may be a part): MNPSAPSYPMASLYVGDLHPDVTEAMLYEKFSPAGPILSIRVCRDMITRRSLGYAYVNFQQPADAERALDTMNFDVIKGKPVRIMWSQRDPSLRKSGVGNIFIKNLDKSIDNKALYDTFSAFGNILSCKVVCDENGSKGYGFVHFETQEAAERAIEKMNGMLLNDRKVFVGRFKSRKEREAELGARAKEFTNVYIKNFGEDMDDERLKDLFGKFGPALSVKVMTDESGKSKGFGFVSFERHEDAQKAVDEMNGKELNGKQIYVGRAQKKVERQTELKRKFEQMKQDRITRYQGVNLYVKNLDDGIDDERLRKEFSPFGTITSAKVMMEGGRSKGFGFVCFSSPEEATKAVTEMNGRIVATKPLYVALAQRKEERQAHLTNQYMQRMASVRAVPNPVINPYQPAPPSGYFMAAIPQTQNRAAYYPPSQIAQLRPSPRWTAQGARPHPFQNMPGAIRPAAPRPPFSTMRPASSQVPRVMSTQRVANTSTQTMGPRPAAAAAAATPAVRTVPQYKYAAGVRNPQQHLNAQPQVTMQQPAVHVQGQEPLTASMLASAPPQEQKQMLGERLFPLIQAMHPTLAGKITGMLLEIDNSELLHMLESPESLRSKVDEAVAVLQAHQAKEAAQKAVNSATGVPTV

SMILES: COc1ccc(-n2c(SCC(=O)c3c(N)n(C)c(=O)n(C)c3=O)nc3ccccc32)cc1
- EC50 [1]: > 150 µM (not active)
- EC50 [2]: > 150 µM (not active)
- EC50 [3]: > 150 µM (inconclusive)
- EC50 [4]: > 150 µM (not active)

SMILES: O=C(CSc1nc(O)c(Cc2ccccc2)c(O)n1)Nc1nnc(SCc2ccccc2)s1
- IC50 [5]: > 66 µM (inactive)
- IC50 [6]: 43.3 µM (active)
- IC50 [7]: > 66 µM (inactive)

SMILES: C=C(C)c1cccc(C(C)(C)NC(=O)Nc2ccc(Cl)cn2)c1
- AC50 [8]: 16.5 µM (active)
- AC50 [9]: 12.8 µM (active)
- AC50 [10]: 50.7 µM (active)
- AC50 [11]: 0.604 µM (active)

SMILES: COc1ccc(NC(=O)C[S+]([O-])CC(=O)Nc2cc(Cl)ccc2OC)cc1 (configuration not stated)
- IC50 [12]: > 20 µM (inactive)

SMILES: Cc1nc2ccccc2c(=O)n1NC(=O)/C=C/c1ccc(Br)cc1
- IC50 [12]: > 20 µM (inactive)

SMILES: NC1=NC[C@H](Cc2ccc(O)cc2)N1CCc1cc(C(F)(F)F)cc(C(F)(F)F)c1
- IC50 [12]: > 20 µM (inactive)

SMILES: NC(=O)NC(CC(=O)NNC(=O)c1ccccn1)c1ccccc1Cl (configuration not stated)
- IC50 [12]: > 20 µM (inactive)

SMILES: CCCCCCNc1c([N+](=O)[O-])cc(C)cc1[N+](=O)[O-]
- AC50 [13]: > 20 µM (inactive)

SMILES: COc1ccc(C(=O)Cn2c(C(C)=O)nc3ccccc32)cc1
- CC50 [14]: 11.5 µM (active)

SMILES: O=C(O)c1ccccc1N=N/C(=N/Nc1cc(S(=O)(=O)O)ccc1O)c1ccccc1
- AC50 [13]: > 20 µM (inactive)
- IC50 [15]: 21.9 µM (active)
- IC50 [6]: 19.1 µM (active)

SMILES: COc1cccc(/C=N/NC(=O)C(=O)NCc2cccnc2)c1O
- IC50 [15]: 8.2 µM (active)

SMILES: O=C(O)c1cc(N/N=C/c2cccs2)ccc1Cl
- EC50 [16]: 3.38 µM (active)
- EC50 [17]: 0.632 µM (active)
- EC50 [18]: 19 µM (active)

SMILES: CCN(CC)CCOc1ccc(/C(=C(/Cl)c2ccccc2)c2ccccc2)cc1 [ENCLOMIPHENE]
- IC50 [12]: > 20 µM (inactive)
- AC50 [19]: 1.6 µM (active)

SMILES: OC[C@H]1O[C@@H](n2cnc3c(NCc4ccco4)ncnc32)[C@H](O)[C@@H]1O [KINETIN RIBOSIDE]
- AC50 [20]: 2.25 µM (active)
